# Results reported in patent publication US9657110B2, “Polypeptides and use thereof” (ASTON UNIVERSITY, priority 2011, dated 2017).
# Numbering of substitutions follows the chain as printed. Names and notes keep the numbering of the source.
# B1: TG2: wild type human tissue transglutaminase expressed in transfected cells (protein)
# chain: AEELVLERCDLELETNGRDHHTADLCREKLVVRRGQPFWLTLHFEGRNYEASVDSLTFSVVTGPAPSQEAGTKARFPLRDAVEEGDWTATVVDQQDCTLSLQLTTPANAPIGLYRLSLEASTGYQGSSFVLGHFILLFNAWCPADAVYLDSEEERQEYVLTQQGFIYQGSAKFIKNIPWNFGQFEDGILDICLILLDVNPKFLKNAGRDCSRRSSPVYVGRVVSGMVNCNDDQGVLLGRWDNNYGDGVSPMSWIGSVDILRRWKNHGCQRVKYGQCWVFAAVACTVLRCLGIPTRVVTNYNSAHDQNSNLLIEYFRNEFGEIQGDKSEMIWNFHCWVESWMTRPDLQPGYEGWQALDPTPQEKSEGTYCCGPVPVRAIKEGDLSTKYDAPFVFAEVNADVVDWIQQDDGSVHKSINRSLIVGLKISTKSVGRDEREDITHTYKYPEGSSEEREAFTRANHLNKLAEKEETGMAMRIRVGQSMNMGSDFDVFAHITNNTAEEYVCRLLLCARTVSYNGILGPECGTKYLLNLNLEPFSEKSVPLCILYEKYRDCLTESNLIKVRALLVEPVINSYLLAERDLYLENPEIKIRILGEPKQKRKLVAEVSLQNPLPVALEGCTFTVEGAGLTEEQKTVEIPDPVEAGEEVKVRMDLLPLHMGLHKLVVNFESDKLKAVKGFRNVIIGPA
# B2: HS1: TG2 mutant K600A, R601A, K602A (protein, UniProt P21980 2-687, looked up, variant K600A R601A K602A)
# Protein-glutamine …: B1 chain with K599A, R600A, K601A
# B3: C277S: TG2 active site mutant, extended conformation (protein, UniProt P21980 2-687, looked up, variant C277S)
# Protein-glutamine …: B1 chain with C276S
# Assays:
# HOB cells = test: Cell adhesion assay (attachment and spreading) on FN or TG-FN matrix with RGD or RAD peptide; assay type: cell-based, human; settings: for effect of PKCα inhibitors on the compensatory effect of P1 peptide on RGD-induced loss of cell adhesion: Go6976 5 μM, GK21 8 μM, P1 100 ug/ml, FN; for effect on the compensatory effects of TG-FN on attachment and spreading in the presence of RGD: HOB cells on TG-FN, peptide 100-400 μg/ml, RGD 150 μg/ml
# Description: The cell adhesion assay was carried out as previously described (Wang et al., 2010). Briefly, 96-well plastic tissue culture plates were coated with 5 μg/ml FN in 50 mM Tris-HCl, pH 7.4 at 4° C. overnight, after washing three times with 100 μl of 50 mM Tris-HCl, pH7.4, gplTG (20 μg/ml) in 2 mM EDTA in PBS, pH 7.4 was added to the wells for 1 h at 37° C. and the wells were washed three times with 50 mM Tris-HCl, pH7.4. Serum-starved (for 16 h) HOB cells with different treatments as introduced below in serum-free medium were detached by trypsinization and then treated with trypsin inhibitor. Cells were washed three times with serum free medium and seeded onto either FN or TG-FN matrix for 20-40 min. Peptides P1 or scrambled P1 (P1s), were added at concentrations between 100 μg/ml and 300 μg/ml. […] Attached cells were washed once with PBS, pH 7.4 and then fixed with 3.7% paraformaldehyde, further permeabilised with 0.1% (v/v) Triton® X-100 detergent in PBS, and co-stained with May-Grunwald and Giemsa stains as described previously (Jones et al., 1997). Images of stained cells from non-overlapping fields of view were photographed at 20× magnification and analyzed using the imaging analysis program Scion Image (National Institute of Health). Cell attachment and spreading were quantified, and the number of cells per image was assessed as described previously (Telci et al., 2008). Cell attachment on FN without peptide was considered as the control value for all the experiments unless stated otherwise. The mean number of attached cells form three wells was calculated and that of the control was considered as 100%. The mean number of attached cells (cell attachment) for each sample was then expressed as the percentage of cell attachment on FN. The mean percentage of attached cells that are spread (cell spreading) for each sample was determined separately, and the mean percentage of spread cells on FN control was expressed as 100%. The mean percentage of spread cells for each sample was then normalised against that of FN control Cell attachment on FN without the RGD peptide was considered as the control value for most of the experiments unless stated otherwise The mean number of attached cells from three wells was calculated and that of the control was considered as 100%. The mean number of attached cells (cell attachment) for each sample was then expressed as the percentage of cell attachment on FN. The mean percentage of attached cells that are spread (cell spreading) for each sample was determined separately, and the mean percentage of spread cells on the FN control was expressed as 100%. The mean percentage of spread cells for each sample was then normalised against that of FN control Cell pre-treatments included: PKCα inhibitor Go6976 (5 μM) or GK21 peptide (8 μM) for 1 h in serum-free medium prior to cell detachment; heparinase (15 mU/ml) or chondroitinase (15 mU/ml) to cells in suspension in serum free medium for 1 h. For the detection of the signalling molecules via Western blotting, the cell adhesion assay was performed in 60 mm Petri dishes and cells were collected into cell lysis buffer (Santa Cruz, UK) as described previously and pre-cleared by centrifugation at 300×g for 10 min. Western blotting was performed with specific anti-p-397 FAK or p-ERK1/2 antibodies. Membranes were stripped (Telci et al., 2008) and total FAK and ERK1/2 detected using anti-FAK and anti-ERK1/2 antibodies as listed in Table 2, while α-tubulin was used as an equal loading standard (Wang et al., 2011).
# Cell adhesion and spreading assays were performed as described above in Example 1 method ‘Cell adhesion assay’
# [1] = Binding of TG2 to heparin SEPHAROSE, elution with NaCl gradient; settings: for binding to heparin SEPHAROSE (in words): compared with wt TG2; for NaCl concentration of optimum elution / major peak from heparin SEPHAROSE: lysate of HEK293T/17 cells, 0-1M NaCl gradient
# Description: HEK cells, transiently transfected with wild-type and mutant TG2 were washed twice with ice cold PBS, pH 7.4 and lysed by the addition of 150 μl of 20 mM Tris-HCl pH 7.4, 10 mM EGTA, 2 mM EDTA, 1 mM NaF and 1 mM Na3VO4. After clarification by centrifugation, lysates were mixed with 450 μl of 50 mM Tris-HCl, 1 mM EDTA, 1 mM DTT, pH 7.5 and applied to a 5 ml Heparin SEPHAROSE® column (GE Healthcare) equilibrated in 50 mM Tris-HCl, 1 mM EDTA, 1 mM DTT pH 7.5 (buffer) at a flow rate of 1 ml/min. For the analysis of GTP-bound TG2 (closed conformation), lysates were pre-incubated for 1 h at room temperature with 0.5 mM GTP in 50 mM Tris-HCl, 2 mM MgCl2, 1 mM EDTA, 1 mM DTT pH 7.5. For the analysis of inhibitor-reacted TG2 (open conformation), lysates were incubated with 0.5 mM of irreversible inhibitor R281 (Griffin et al., 2008) and 10 mM CaCl2. The column was washed with 25 ml of buffer and protein was eluted with a linear gradient of increasing NaCl concentration (0-1M) in buffer. Fractions were assayed for TG2 activity and analysed for the presence of TG2 antigen by SDS-PAGE and Western blotting using CUB7402.
# NIH 3T3 cells = test: Detection of TG2 at cell surface (biotinylation), in ECM and in culture medium of transfected cells; assay type: cell-based, mouse; settings: transfected NIH 3T3 cells; for presence on the cell surface: biotinylation and Western blot, vs wild-type TG2
# Description: Cell surface proteins were labelled by biotinylation as described previously (Wang et al., 2010). Briefly, cell monolayers were rinsed three times with ice-cold PBS pH 8.0 and labelled with 0.8 mM sulfo-NHS-LC-biotin dissolved in PBS pH 8.0 at 4° C. for 20 min. Cells were then washed with 50 mM Tris-HCl, pH 8.0 and lysed with 1% SDS at 4° C. in PBS pH8.0. Following denaturation at 95° C., cell lysates were clarified by centrifugation at 14,000×g at 20° C. and 200 μg of protein was incubated overnight at 4° C. with NEUTRAVIDIN® avidin protein-Agarose resin. After washing three times with PBS pH 8.0, the biotin-labelled proteins were dissolved in 2× Laemmli buffer separated by SDS-PAGE and subjected to Western blotting.
# Following transfection, cells were incubated for 24 h with 10% (v/v) serum, which was replaced with 1% (v/v) serum and TG2 expression was allowed to proceed for a further 48 h. Proteins from 1 ml of medium were precipitated by the addition of ice cold 20% (w/v) trichloroacetic acid (TCA) to a final concentration of 10% (w/v) Pelleted proteins were then washed once with ice cold 10% (w/v) TCA, ethanol-acetone (1:1) and acetone, and resuspended in 2× Laemmli buffer (Sigma-Aldrich, UK) and analysed by SDS-PAGE and Western blot analysis using monoclonal anti-TG2 antibody (Cub7402). The remaining cells were detached with 2 mM EDTA in PBS, pH 7.4 and the ECM was extracted with 0.1% (w/v) deoxycholate in PBS, pH 7.4. The residual deoxycholate-insoluble ECM proteins were dissolved in 2× Laemmli buffer for further analysis by SDS-PAGE and Western blotting using Cub7402.
molecule,measurement,setting,value
"Cn1c2ccccc2c2c3c(c4c5ccccc5n(CCC#N)c4c21)CNC3=O [Go6976, reference compound]",effect of PKCα inhibitors on the compensatory effect of P1 peptide on RGD-induced loss of cell adhesion,HOB cells,inhibition of the compensatory effect
"GENPIYKSAVTTVVNPIYEGKRQIKIWFQNRRMKWKK (listed as Homo sapiens) [GK21, reference compound]",effect of PKCα inhibitors on the compensatory effect of P1 peptide on RGD-induced loss of cell adhesion,HOB cells,inhibition of the compensatory effect
GRDCSRRSS (listed as Homo sapiens) [fragment peptide derived from P1],effect on the compensatory effects of TG-FN on attachment and spreading in the presence of RGD,HOB cells,"able to inhibit the compensatory effects of TG-FN on attachment and spreading, in a dose-dependent manner"
"HS2: TG2 mutant K205A, R209A (NPKFLKNAGRDCSRRSS)",binding to heparin SEPHAROSE (in words),[1],lost the capability to bind with high affinity to heparin
same,NaCl concentration of optimum elution / major peak from heparin SEPHAROSE,[1],60 mM NaCl
same,presence in spent culture medium,NIH 3T3 cells; Western blot,detectable
same,presence in the ECM,NIH 3T3 cells; Western blot,not detectable
same,presence on the cell surface,NIH 3T3 cells,detected but in reduced amounts
NPKFLKNA (listed as Homo sapiens) [fragment peptide derived from P1],effect on the compensatory effects of TG-FN on attachment and spreading in the presence of RGD,HOB cells,could not abrogate
same,concentration at which peptide was inhibitory to cell attachment and spreading,"HOB cells; HOB cells, tested 100-400 μg/ml",above 200 μg/ml
B1,NaCl concentration of major peak from heparin SEPHAROSE in the presence of GTP,"[1]; 0.5 mM GTP, compact conformation",about 330 mM NaCl
same,NaCl concentration of major peak from heparin SEPHAROSE after reaction with inhibitor R281,"[1]; 0.5 mM R281, extended conformation",250 mM NaCl
same,NaCl concentration of optimum elution / major peak from heparin SEPHAROSE,[1],330 mM NaCl
B2,binding to heparin SEPHAROSE (in words),[1],bound heparin identically to TG2
same,presence on the cell surface,NIH 3T3 cells,greater levels
B3,NaCl concentration of optimum elution / major peak from heparin SEPHAROSE,[1],250 mM NaCl
